Test results: US4052515A, “Method of treating acne with alcohol” (priority 1976, dated 1977)

Tests used:
[1] = Topical application of compositions to skin affected by acne; type: in vivo; settings: 3 to 10 milligrams composition per square centimeter of skin, about 3 weeks
Excerpt: When treating acne it is preferred that a regimen involving multiple applications of the composition over a period of days or weeks be employed. The amount of the composition applied to the affected areas which constitutes an effective amount will vary depending on the particular person and degree of acne. It is preferred that the composition be applied to the affected areas at a rate of 3 milligrams of composition per square centimeter to 10 milligrams composition per square centimeter of treated tissue.
The above compositions show an anti-acne effect when topically applied to skin areas so affected at a rate of between 3 to 10 milligrams composition per square centimeter of skin over a period of about 3 weeks.

[2] = system: Pityrosporum ovale whole cell lipase activity; test: Whole cell lipase activity, pH stat; type: cell-based; settings: for Percent Inhibition Tributyrin / Percent Inhibition Triolein: P. Ovale, alcohol 0.5mMoles; for Percent Inhibition Tributyrin: tributyrin substrate; for Percent Inhibition Triolein: triolein substrate; for Inhibitory activity against different types and strains of skin microorganisms and substrates: summary in words over all strains and both substrates
Protocol: Cells from three strains of C.Acnes and one strain of Pityrosporum ovale are collected and whole cells used to measure lipase activity. Tributyrin and triolein are used as substrates by dispersing them in a histidine-buffered system by sonication and measuring the acid changes with a pH stat. Alcohols are added to the substrate at a level of 0.5mMoles.

[3] = system: P. Ovale cells and artificial sebum lipid; test: Irritation by artificial sebum plus P. Ovale cells on guinea pig back; type: in vivo, guinea pigs; settings: for Average Irritation Grade: graded after 5 days, scale 0-4, 4 most severe, 0% control 2.0; for Reduction of irritation produced by P. Ovale cells and artificial sebum lipid: summary in words
Protocol: (§1) A lipid mixture resembling human sebum in composition, but lacking free fatty acids, is applied to the back of guinea pigs along with an inoculum of P. Ovale cells. Alcohol is added to the artificial sebum lipid at concentrations of 1 and 5%. Irritation is graded after 5 days on a scale of 0-4, 4 being most severe.

[4] = system: Corynebacterium acne lysate supernatant lypolytic activity; test: Lypolytic activity of C. acne lysate supernatant, tributyrin turbidity; type: biochemical; settings: for Percent Inhibition C. Acne: tributyrin 0.05% substrate, initial rates of turbidity change; for Effect on inhibiting the hydrolysis of the tributyrin: summary in words for C. acne and comedo homogenate
Protocol: Cells of a pure culture of Corynebacterium acne are collected, lysed in 0.05M phosphate buffer and centrifuged. The resultant supernatant is also used to measure lypolytic activity.
(§2) Tributyrin (0.05%) is dispersed in the phosphate buffered solutions by sonication, the alcohol is added, and then an aliquot of the enzyme solution added. The decrease in turbidity is measured spectrophotometrically. Inhibitory activity is determined by comparing initial rates of change.

[5] = system: Comedo homogenate lypolytic activity; test: Lypolytic activity of comedo homogenate supernatant, tributyrin turbidity; type: biochemical; settings: tributyrin 0.05% substrate
Protocol: Comedones are collected from the face of subjects with varying degrees of acne and homogenized in 0.05M phosphate buffer, pH 8.1. The mixture is centrifuged and the supernatant is used to measure lypolytic activity.
as §2

[6] = system: P. Ovale cells and artificial sebum lipid; test: Parallel experiment: irritation and free fatty acid in artificial sebum after 5 days; type: in vivo, guinea pigs; settings: for Irritation Grade: after 5 days, control 3; for % Free Fatty Acids: lipids extracted after 5 days, control 12.5
Protocol: as §1
In a parallel experiment, 1-octanol is mixed in the artificial sebum in varying ratios. After 5 days the lipids are extracted and the quantity of free fatty acid determined.

[7] = Stoler disclosure; cited from earlier work
[8] = 1.0% alcohol in artificial sebum
[9] = 5.0% alcohol in artificial sebum

## CCCCCCC=CCCO [3-decen-1-ol]
[1]
  Anti-acne effect: substantially the same results

## CCCO [Propanol]
[1]
  Anti-acne effect: substantially the same results

## CCCCCCCCCCO [1-decanol]
[1]
  Anti-acne effect: substantially the same results
[2]
  Percent Inhibition Tributyrin: 63%
  Percent Inhibition Triolein: 24%
  Inhibitory activity against different types and strains of skin microorganisms and substrates: broad inhibitory activity
[3]; [8]
  Average Irritation Grade: 1.3
[3]; [9]
  Average Irritation Grade: 0.6
[3]
  Reduction of irritation produced by P. Ovale cells and artificial sebum lipid: able to reduce the irritation

## CCC=CCCO [3-hexen-1-ol]
[1]
  Anti-acne effect: substantially the same results

## CC(C)O [isopropanol]
[1]
  Anti-acne effect: substantially the same results

## CCCCO [1-butanol, reference compound]
[4]; 0.1% alcohol
  Percent Inhibition C. Acne: 0%
[4]
  Effect on inhibiting the hydrolysis of the tributyrin: no measurable effect
[5]; 0.1% alcohol
  Percent Inhibition Comedo Homogenate: 0%

## CCCCCCCCO [1-octanol]
[6]; alcohol concentration 0.5
  Irritation Grade: 2
  % Free Fatty Acids: 2.5%
[6]; alcohol concentration 1.0
  Irritation Grade: 2
  % Free Fatty Acids: 1.7%
[6]; alcohol concentration 5.0
  Irritation Grade: 0.5
  % Free Fatty Acids: 2.5%
[4]; 0.03% alcohol
  Percent Inhibition C. Acne: 63%
[4]; 0.1% alcohol
  Percent Inhibition C. Acne: 100%
[4]
  Effect on inhibiting the hydrolysis of the tributyrin: positive effect
[5]; 0.03% alcohol
  Percent Inhibition Comedo Homogenate: 20%
[5]; 0.1% alcohol
  Percent Inhibition Comedo Homogenate: 27%
[2]
  Percent Inhibition Tributyrin: 60%
  Percent Inhibition Triolein: 12%
  Inhibitory activity against different types and strains of skin microorganisms and substrates: broad inhibitory activity
[3]; [8]
  Average Irritation Grade: 0
[3]; [9]
  Average Irritation Grade: 0.6
[3]
  Reduction of irritation produced by P. Ovale cells and artificial sebum lipid: able to reduce the irritation

## CCCCCCC(C)O (centres unmarked) [2-octanol]
[1]
  Anti-acne effect: substantially the same results

## CCCCCCCCCCCCO [1-dodecanol]
[1]
  Anti-acne effect: substantially the same results
[3]; [8]
  Average Irritation Grade: 1.3
[3]; [9]
  Average Irritation Grade: 1.0
[3]
  Reduction of irritation produced by P. Ovale cells and artificial sebum lipid: able to reduce the irritation

## OCc1ccccc1 [benzyl alcohol]
[7]
  Anti-acne agent: an effective anti-acne agent
  Inhibition of the formation of free fatty acids: effective in inhibiting the formation of free fatty acids
